Data published in patent publication US5529983A, “Use of small peptides in the treatment of psoriasis” (The United States of America as represented by the …, priority 1995, dated 1996).

Legend:
[1] = Toxicity of peptide treatment in human patients; assay type: in vivo
Source text: Toxicity. As to toxicity, the complete schedule of peptide therapeutic agents above gave negative evidence of toxicity.

[2] = Six-week intravenous toxicity study in hamsters; assay type: in vivo
Source text: [D-ala^1 ]peptide-T-amide was given twice daily intravenously to hamsters for six weeks. […] Liver enzymes and kidney enzymes were normal after injection.

[3] = after injection twice daily intravenously for six weeks

Compound | toxicity in the liver or kidney ([1]; In humans) | toxicity ([1]; preliminary findings, blood pressure fell when the infusion rate was increased) | Liver enzymes [2, 3] | kidney enzymes [2, 3] | histologic studies on all organs ([2]; twice daily intravenously for six weeks)
C[C@H](N)C(=O)N[C@@H](CO)C(=O)N[C@H](C(=O)N[C@H](C(=O)N[C@H](C(=O)N[C@@H](CC(N)=O)C(=O)N[C@@H](Cc1ccc(O)cc1)C(=O)N[C@H](C(=O)O)[C@@H](C)O)[C@@H](C)O)[C@@H](C)O)[C@@H](C)O [Peptide T] | no toxicity apparent | non-toxic with the exception of lowering the blood pressure on one occasion | – | – | –
C[C@@H](N)C(=O)N[C@@H](CO)C(=O)N[C@H](C(=O)N[C@H](C(=O)N[C@H](C(=O)N[C@@H](CC(N)=O)C(=O)N[C@@H](Cc1ccc(O)cc1)C(=O)N[C@H](C(N)=O)[C@@H](C)O)[C@@H](C)O)[C@@H](C)O)[C@@H](C)O [[D-ala^1]peptide-T-amide] | – | – | normal | normal | no significant difference
